The Kd is the free concentration of one partner at which half of the binding sites on the other are occupied at equilibrium, for simple one-to-one binding.

The text below walks through data of article PMC10042540, “Targeting oncogenic KRasG13C with nucleotide-based covalent inhibitors” (eLife, 2023).

For one assay, the target named is KRasWT1-169 (Homo sapiens, UniProt P01116). The assay is described as follows: HPLC-based approach for determination of affinities relative to GDP. The class given is binding. To be noted: KA = KA(GDP) x KrelA; GDP from KA = 1/KD. As for the experimental part:
The relative affinities of the nucleotide analogues were measured using an HPLC-based approach. 50 μM of […] was mixed with 50 μM of the acetamide derivatives and incubated either for 7 days at room temperature in the absence of EDTA, for 24 hr at 4 °C in the presence of 10 mM EDTA, or for 1 hr at room temperature in the presence of SOS in a buffer consisting of 20 mM HEPES (pH 7.5), 100 mM NaCl, 2 mM MgCl2, 1 mM TCEP and 5% glycerol. After incubation, the Ras proteins were washed five times with buffer (15 mL) using centrifugal filter devices to remove any unbound nucleotide, concentrated and analysed by isocratic HPLC runs. The resulting curves were analysed by integrating the corresponding peaks for GDP and the guanosine nucleotide analogues after distinct time points using the Agilent ChemStation Software (Table 1-source data 3, Table 1-source data 4). Based on the percentage distribution determined by the HPLC assay, the relative association constants (KrelA) for […] and bdaGDP could subsequently be calculated. In contrast, the superposition of the GDP signal prevented an exact determination of the relative association constant for […] values of 0.34 and 0.28 relative to GDP were determined for […] and bdaGDP, respectively. […] By rearranging the equilibrium reactions listed in (Equation 1a) and (Equation 1b), the following relationships are obtained for KGDP (Equation 2a) and […] Assuming that the concentration for aGDP used in the HPLC assay is 50 μM, the following GDP concentrations for […] (Equation 3a) and bdaGDP (Equation 3b) can be determined at time t=0 hr using the percentages determined in Table 1-source data 3:(3a) GDPtotal=%GDP/%[…]=37%/63%×50μM=29.4μM (3b) GDPtotal=%GDP/%bdaGDP=43%/57%×50μM=37.7μM The concentrations of the components listed in equation (Equation 2b) can be calculated as follows for […] (Equation 4a, Equation 4b, Equation 4c, Equation 4d) and bdaGDP (Equation 5a, Equation 5b, Equation 5c, Equation 5d) by considering the total GDP concentrations calculated previously:(4[…]]=47/100×29.4μM=13.8μM (4b) [Ras:GDP]=53/100×29.4μM=15.6μ[…]]=50μM-13.8μM=36.2μM (4d) [GDP]=29.4μM-15.6μM=13.8μM (5a) [Ras:bdaGDP]=39.5/100×37.7μM=14.9μM (5b) [Ras:GDP]=60.5/100×37.7μM=22.8μM (5c) [bdaGDP]=50μM-14.9μM=35.1μM (5d) [GDP]=37.7μM-22.8μM=14.9μM The relative association constant KrelA can be calculated by the following formula (Equation 6):(6) […] By inserting the concentrations of each component determined from (Equation 4a, Equation 4b, Equation 4c, Equation 4d) and (Equation 5a, Equation 5b, Equation 5c, Equation 5d) into (Equation 6), the relative association constants KrelA for […] (Equation 10a) and […]=1/0.136pM^-1=7.4pM (10b) KDbdaGDP=1/0.112pM^-1=8.9pM

The test system of another assay is nucleotide-free KRas. Description: Stopped-flow competition with mantdGDP (association kinetics). The class given is binding. Conditions: for kon: 25 °C, 1 µM KRas, 2 µM mantdGDP, 1, 2, 6 µM competing nucleotide, global fit. How it is done: The association kinetics of the nucleotide analogues were analyzed with a SX-20 stopped-flow instrument (Applied Photophysics) at 25 °C in a buffer consisting of 25 mM HEPES (pH 7.5), 100 mM NaCl, 1 mM MgCl2, and 0.5 mM TCEP. 1 µM of nucleotide-free KRas ([Müller et al., 2017]) in one syringe was mixed rapidly with 2 µM mantdGDP in the other. In subsequent experiments, the second syringe contained competing nucleotides (1, 2, and 6 µM) in addition to 2 µM mantdGDP. The resulting progress curves were globally fit using KinTek Explorer to obtain the corresponding association rate constants as previously described (Table 1—source data 1, Table 1—source data 2 [Johnson et al., 2009]).

Another assay has as its target KRas. Also on record: method as in Jeganathan et al., 2018. To be noted: reference value for GDP; ref Jeganathan et al., 2018; cited from earlier work.
The test system of assay [1] is T1, KRasG13C1-169 (Cys-light).
T1 construct: KRasWT1-169 and KRasG13C1-169 Cys-light (C51S C80L C118S) were expressed in BL21 (DE3) E. coli; hexahistidine (TEV site) (N, cleaved yes); made in house; host or cells: E. coli BL21 (DE3)
Description: Covalent modification of protein controlled by ESI-MS. The class given is binding. How it is done: After incubation at room temperature for the appropriate time, the modification of the protein was controlled by ESI-MS. For covalent modification of full-length KRasG13C, a nucleotide exchange with a 10-fold excess of the acryl-bearing nucleotides at pH 7.5 was first performed following incubation at room temperature for 24 h at pH 9.5 for covalent protein modification. Covalent protein modification was controlled by ESI-MS. The MS spectra were recorded on a VelosPro IonTrap (Thermo Scientific) with an EC 50/3 Nucleodur C18 1.8 μm column (Macherey and Nagel) and a gradient of the mobile phase A (0.1% formic acid in water) to B (0.1% formic acid in acetonitrile).

In a further assay the test system is Rab21. The description is as above. The class given is binding. To be noted: compared to KRasG13C.

Chain of KRasWT1-169 (P01116 1-169): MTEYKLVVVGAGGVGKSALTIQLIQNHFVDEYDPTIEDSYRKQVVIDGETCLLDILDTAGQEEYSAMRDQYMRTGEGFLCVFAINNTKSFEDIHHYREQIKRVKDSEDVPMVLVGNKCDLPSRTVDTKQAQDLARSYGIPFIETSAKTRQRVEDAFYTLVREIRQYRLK

The compound `Nc1nc2c(ncn2[C@@H]2O[C@H](COP(=O)(O)OP(=O)(O)O)[C@@H](O)[C@H]2O)c(=O)[nH]1` [GDP, reference compound] gave a KA at KRasWT1-169 of 0.4 pM⁻¹. In the assay with nucleotide-free KRas, the kon turned out to be 4.22 µM^–1s^–1. Moreover, in the assay on nucleotide-free KRas (calculated kinetic parameter), the koff is listed as 1.1x10^–5 s^–1. Besides, the Kd at KRas was 2.5 pM.
For `C=CC(=O)NCCNC(=O)O[C@H]1[C@@H](O)[C@H](n2cnc3c(=O)[nH]c(N)nc32)O[C@@H]1COP(=O)(O)OP(=O)(O)O` [edaGDP], in the assay with nucleotide-free KRas, the kon came out at 3.73 µM^–1s^–1. In addition, the “covalent labelling of KRasG13C1-169 (Cys-light)” value in assay [1] (pH 7.5, after 24 hr) is “slight labelling”; in assay [1] (pH 9.5, after 24 hr), about 100%. In addition, the “covalent modification of Rab21” value with Rab21 is on record as “comparable to KRasG13C”.
